Test results from PMC10111420, “Optimization of Host Cell-Compatible, Antimicrobial Peptides Effective against Biofilms and Clinical Isolates of Drug-Resistant Bacteria” (ACS Infectious Diseases, 2023).
Values after ≈ are worked out from the molar mass of the structure shown. Where a SMILES comes first, the peptide text is derived from it. [ ]: non-standard residue; d: D form.

Legend:
[1] = system: Acinetobacter baumannii (PDR) Tulane isolate; conditions: PDR) Tulane isolate
[2] = system: P. aeruginosa PAO1 (EYFP) pellicle biofilms; assay: Pellicle biofilm assay, viable cell enumeration; type: cell-based, Pseudomonas aeruginosa
Protocol: Here, we directly compare the antibiofilm activity of D-CONGA and D-CONGA-Q7 using a mature pellicle biofilm of P. aeruginosa.[22] […] To determine the susceptibility of pellicle biofilms to D-CONGA and D-CONGA-Q7, we cultured 2-day-old biofilms as described in the Methods section. The coverslip-adhered biofilms were exposed to challenge solution for 24 h prior to staining with SYTOX red and imaging with CLSM for EYFP, which indicates live cells, and for SYTOX Red which stains dead cells and extracellular DNA. […] The % cell survival was quantitated in two ways: (i) COMSTAT was used to compare biofilm biomass in CLSM images by estimating the biofilm biovolume, which is calculated as the overall volume/substratum area (μm^3/μm^2).[24],[25] […] (ii) The biofilms were dispersed mechanically for subsequent enumeration of viable cells such that % survival is expressed as the ratio (CFUuntreated biofilm/CFUtreated biofilm).
The susceptibility of biofilm-embedded P. aeruginosa cells to the antimicrobial peptides was studied as reported previously[23] using a P. aeruginosa PAO1 strain expressing enhanced yellow fluorescent protein (EYFP).[22] The EYFP-expressing P. aeruginosa strain was routinely grown in Pseudomonas Isolation (PI) media (20 g/L peptone, 0.3 g/L, MgCl2·6H2O, 10 g/L, K2SO4, 25 mg/L irgasan, and 20 mL/L glycerol, pH 7.0). […] Iron supplementation was carried out by addition of a small volume of filter-sterilized 10 mM (NH4)2Fe(SO4)2 (pH ∼ 2.0) solution.
In brief: Starter cultures (5 mL PI media supplemented with 10 μM Fe) were grown (14 h) from a single-colony shaking (220 rpm) at 37 °C. To grow the pellicle biofilms, starter cultures were diluted to OD600 = 0.001 in 4 mL of PI media supplemented with 20 μM Fe, placed in 35 × 10 mm Petri dishes, and incubated statically at 30 °C for 48 h. The pellicles were harvested using circular (1.5 cm diameter) glass coverslips by gently allowing the surface of a coverslip to contact the biofilm at the air–liquid interface. […]

[3] = Post-surgery mouse monitoring (weight, wound condition); conditions: monitored every day for 14 days, four mice per group, P. aeruginosa and MRSA infected mice, versus vehicle control
Protocol: In this model, a deep surgical punch wound, created on the dorsal surface of healthy adult CD1 mice is stabilized with a silicone ring to prevent healing by contraction, and then, covered with a Tegaderm dressing. The wound bed, with a volume of ∼20 μL, is immediately infected with 1 × 10^5 cfu of luciferase-producing P. aeruginosa or MRSA.
Female CD1 mice at 8–12 weeks of age were anesthetized via intraperitoneal injection of ketamine and xylazine at doses of 90 and 10 mg/kg, respectively. Their dorsal surface was depilated using an electric razor and scrubbed with a chlorhexidine solution. A full-thickness biopsy wound was generated using a 5 mm biopsy punch (Integra). To function as a splint for the wound, a 0.5 mm thick silicon (Invitrogen) ring with an outer diameter of 10 mm and a hole with a 5 mm diameter was placed over the wound and held to the skin with a surgical adhesive. The entire silicon ring was then covered with Tegaderm (3 M), and further adhered using 4-0 braided silk interrupted sutures (Ethicon). Mice were given 0.05 mg/kg buprenorphine immediately following surgery as well as daily for the next 2 days to alleviate pain from the procedure. […] Weight, activity, posture, coat condition, and wound condition were monitored each day throughout the duration of the experiment to ensure the well-being of each mouse. […]

luminescent MRSA = assay: Murine wound infection model, MRSA; type: in vivo, CD1 mice; conditions: 75 μg in 20 μL water with 0.025% acetic acid, topical, every 8 h for the first 5 days; luminescence (IVIS), Days 1–3; four animals per group
Protocol: (§1) Wound luminescence values were recorded once per day for each animal during the experiment using an IVIS whole animal imaging system. Total luminescence values, integrated over the entire wound area, were averaged for the four animals in each group. Treated versus control values were compared for each day using a two-sample t-test. Multiple comparisons were corrected using the method of Bonferroni.

[4] = system: K. pneumoniae clinical isolates; assay: microbe, parasite or virus in culture; conditions: clinical isolates
Protocol: Subcultures, prepared by inoculating 25 mL of fresh tryptic soy broth (TSB) with 200 μL of an overnight culture, were grown to log phase (OD600 = 0.3–0.6), after which cell counts were determined by measuring the OD600 (1.0 = 5 × 10^8 CFU/mL for E. coli, 4 × 10^8 CFU/mL for K. pneumoniae, 4 × 10^8 CFU/mL for P. aeruginosa, 1.5 × 10^8 CFU/mL for S. aureus). Bacterial cells were diluted to appropriate concentrations in TSB. We used the following clinical bacterial isolates of Klebsiella pneumoniae in this study: Strains KP6, KP46, NDM-1, KP396, and KP398 have been previously described.[43] ST58 strains C2, C3, and I2 are also described.[41] […] MRSA, […] S. aureus strain, is SAP400, a USA400 strain of community-acquired MRSA. […] The second independent set of K. pneumoniae isolates are previously described.[20],[21]
The antibiotics were serially diluted by a factor of 2:3 horizontally across 96-well plates from Corning, 25 μL per well. One column was reserved for controls. For the assays performed in the presence of RBC, type O+ human RBCs at 0 or 2.5 × 10^9 cells/mL were added in 50 μL aliquots to all wells. […] To assess bacterial growth in the assays with RBC, the OD600 was measured after a second-day inoculation with 10 μL of solution from the original plate added to 100 μL of sterile TSB followed by overnight incubation.
Experiments were repeated four to eight times independently, with pairs of replicate measurements on each 96-well plate. After overnight growth, optical densities were measured at 660 nm and the sterilized wells were identified by having O.D. < 0.08. Nonsterilized wells were nearly opaque with OD > 0.6. For each measurement, we recorded the largest dilution that sterilized the bacteria. Statistics are done on dilution numbers, rather than calculated concentrations, because only the former have normal distributions.

human RBCs = type: cell-based
In short: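 Washed human O+ erythrocytes (2 × 10^8 cells/mL stock, mixed 1:1) were incubated with peptide serially diluted from 100 μM in PBS for 1 h at 37 °C. Released hemoglobin was read at 410 nm in supernatant; fractional hemolysis calculated against 1% Triton (100%) and 0% lysis controls, averaged over ≥3 experiments.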

[5] = system: P. aeruginosa wound biofilms; assay: SEM of Tegaderm wound dressing, P. aeruginosa; type: in vivo, CD1 mice; conditions: dressing removed on Day 3, treated three times a day
Source text: The Tegaderm dressing used in the murine wound model is an excellent substrate for bacterial adhesion and biofilm formation.[5],[15] […] We imaged three to four randomly selected areas of each Tegaderm sample at two magnifications each. Each image is scored for the presence/absence of bacterial cells, either rod-shaped P. aeruginosa, ∼1 μm in diameter, or spherical MRSA cocci, ∼0.9 μm in diameter. Images are also scored for biofilm-like structures defined by having multiple bacteria embedded in an obvious three-dimensional matrix. These distinctions are shown by representative images of the fixed Tegaderm dressings in Figure 9A,B. In vehicle control samples, we observed that P. aeruginosa frequently forms an open, three-dimensional matrix in which many cells are entangled in μm-long fibers. We observed that MRSA also forms a matrix in which cells are close-packed in strands that comprise a large-scale mesh. Every SEM image (68/68) from vehicle control samples of the two bacteria contained obvious visible bacteria, and most of these images contained ≥50 individual cells. In samples from peptide-treated animals, 57 of 68 (84%) of images had no visible bacteria. […] We performed a statistical analysis of observed bacteria and biofilms using the binomial equation. P-values for all comparisons of treated vs vehicle were less than 0.001. […]

K. pneumoniae isolates = assay: Susceptibility of all K. pneumoniae isolates (both sets); type: cell-based, Klebsiella pneumoniae; conditions: both sets of clinical isolates
Source text: In parallel experiments, resistance of P. aeruginosa to multiple conventional antibiotics grew rapidly over just a few passages.[5] […] The mechanism of resistance avoidance is currently unknown. Further studies will be required to understand the mechanistic basis for the resistance avoidance of D-CONGA-Q7 against K. pneumoniae isolates. These insights will be particularly important for the advancement of resistance-avoiding AMPs into the clinic.

[6] = system: luminescent P. aeruginosa (PAO1); assay: Murine wound infection model, P. aeruginosa; type: in vivo, CD1 mice; conditions: 75 μg in 20 μL water with 0.025% acetic acid, topical, every 8 h for the first 5 days; luminescence (IVIS), Days 1–3; four animals per group
Protocol: as §1

SMILES: CC(C)C[C@@H](NC(=O)[C@@H](CCC(N)=O)NC(=O)[C@@H](CCCNC(=N)N)NC(=O)[C@@H](CCCNC(=N)N)NC(=O)[C@@H](C)NC(=O)[C@@H](Cc1c[nH]c2ccccc12)NC(=O)[C@@H](CCCNC(=N)N)NC(=O)[C@H](N)CCCNC(=N)N)C(=O)N[C@H](C)C(=O)N[C@H](Cc1ccccc1)C(=O)N[C@H](C)C(=O)N[C@H](Cc1ccccc1)C(=O)N[C@H](CCCNC(=N)N)C(=O)N[C@H](CCCNC(=N)N)C(N)=O [D-CONGA-Q7] (H-[dR][dR][dW][dA][dR][dR][dQ][dL][dA][dF][dA][dF][dR][dR]-NH2; N-terminus assumed)
- MIC, AB (PDR)Tulane [1]: 1.1 µM (≈ 2.08 µg/mL)
- Reduction of biofilm CFU ([2]; 2 μM, 48 h pellicle biofilm, 24 h challenge, dispersing and counting viable cells): 70%
- Reduction of viable biofilm bacteria ([2]; 8 μM peptide, 2-day-old pellicle biofilm, 24 h treatment in AB challenge media, 30 °C): ≥ 90%
- Weight loss of mice [3]: did not demonstrate any differential weight loss
- Wound condition score [3]: no significant difference
- Maximum reduction of MRSA burden (luminescent MRSA): ≥ 4 logs
- MIC, KP 6 [4]: 3.2 µM (≈ 6.05 µg/mL)
- MIC, KP 46 [4]: 2.2 µM (≈ 4.16 µg/mL)
- MIC, KP 398 [4]: 3.8 µM (≈ 7.18 µg/mL)
- MIC, KP (CRE) [4]: 2.0 µM (≈ 3.78 µg/mL)
- MIC, KP ATCC 33495 [4]: 2.4 µM (≈ 4.53 µg/mL)
- MIC, KP ST258 C2 [4]: 8.9 µM (≈ 16.8 µg/mL)
- MIC, KP ST258 C3 [4]: 14 µM (≈ 26.4 µg/mL)
- MIC, KP ST258 I2 [4]: 1.4 µM (≈ 2.64 µg/mL)
- MIC, KP ST396 [4]: 1.9 µM (≈ 3.59 µg/mL)
- Hemolysis at 100 μM (fractional hemolysis) (human RBCs): 0.07
- P. aeruginosa: Bacteria present (SEM images of Tegaderm) ([5]; images with bacteria / all random images): 8/33
- P. aeruginosa: Biofilm present (SEM images of Tegaderm) ([5]; images with biofilm / all random images): 0/33
- K. pneumoniae isolates susceptible (K. pneumoniae isolates): 28 of 29
- Reduction of P. aeruginosa burden [6]: ~2 logs
